“And” between values parts separate entries of the source, which are not always exact repeats. Equal entries are not always repeated.
target: T1, PAF specific receptor binding site (human platelet membranes) (Homo sapiens, UniProt P25105); test: Inhibition of [3H]N-methylcarbamoyl-PAF binding to human platelet membranes; conditions: drug concentration of 3 nM, trans configuration
T1 construct: platelet membranes at a drug concentration of 3 nM; from tissue; host or cells: human platelet plasma membranes
Method: The ability of a compound of formula (I) to inhibit the PAF binding to its specific receptor binding site on rabbit or human platelet or PMN plasma membranes was measured by a recently developed assay.
The inhibition of ^3 [H]-PAF or ^3 [H]-N-methyl carbamoyl-TAF binding to the human or rabbit platelet or PMN plasma membrane by a PAF antagonist of formula (I) was determined by a method employing isotopic labeling and filtration techniques. Generally, a series of Tris-buffered solutions of the selected antagonist at predetermined concentrations were prepared. Each of these solutions contains 1 pmole of ^3 H-PAF, a known amount of the test antagonist, and a sufficient amount of the pH 7.5 Tris-buffer solution (10mM Tris, 0.25% bovine serum albumin, and 150 mM NaCl per ml water) to make the final volume of 1 ml. After adding into a set of test tubes each with 100 μg of the platelet plasma membrane suspension (S. B. Hwang, et. al., Biochemistry, Vol. 22 pp. 4756-4763, 1983) and one of the Tris-buffer solutions described above, the resulting mixture in each test tube was incubated at 0° C. for about one hours or until the reaction was complete. Two control samples, one of which (C1) contains all the ingredients described above except the antagonist and the other (C2) contains C1 plus a 100-fold excess of unlabeled PAF, were also prepared and incubated simultaneously with the test samples. After the incubation was completed, the contents of each test tube were filtered under vacuo through a Whatman GF/C fiberglass filter and the residue washed rapidly several times with a total of 20 ml cold (0°-5° C.) Tris-buffer solution. Each washed residue was then suspended in 10 ml scintillation solution (Aquasol 2, New England Nuclear, Conn.) and the radioactivity was counted in a Packard Tri-Carb 460CD Liquid Scintillation System. Defining the counts from a test sample as "Total binding with antagonist"; the counts from the control sample C1, as "Total binding C1 "; and the counts from the control sample C2 as "non-specific binding C2 ", the percent inhibition of each test antagonist can be determined by the following equations: [formula]

T1 sequence (P25105 whole entry): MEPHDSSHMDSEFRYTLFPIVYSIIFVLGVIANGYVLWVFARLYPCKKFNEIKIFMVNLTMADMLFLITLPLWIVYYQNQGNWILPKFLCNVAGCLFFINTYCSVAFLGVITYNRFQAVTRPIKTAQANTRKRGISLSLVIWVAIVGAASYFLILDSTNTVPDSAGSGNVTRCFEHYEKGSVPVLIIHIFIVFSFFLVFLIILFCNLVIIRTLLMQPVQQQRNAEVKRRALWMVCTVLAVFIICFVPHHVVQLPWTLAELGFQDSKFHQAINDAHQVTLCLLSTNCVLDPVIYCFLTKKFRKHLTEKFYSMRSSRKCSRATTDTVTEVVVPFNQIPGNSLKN

Row | inhibition at 0.003 µM [%] | Compound
1 | 34 | CCCOc1c(OCCN2CCNCC2)cc([C@@H]2CC[C@@H](c3cc(OC)c(OC)c(OC)c3)O2)cc1S(=O)(=O)CC(C)=O (relative stereo)
2 | 34 | CCCOc1c(OCCSc2ncc[nH]2)cc([C@H]2CC[C@H](c3cc(OC)c(OC)c(OC)c3)O2)cc1S(=O)(=O)CC(C)O (relative stereo) [trans-2-[3-(2-Hydroxy-n-propylsulfonyl)-4-n-propoxy-5-{2-(2-imidazolylthio)ethoxy}phenyl]-5-(3,4,5-trimethoxyphenyl)tetrahydrofuran]
3 | 41 | CCCOc1c(OCCCn2ccnc2)cc([C@H]2CC[C@H](c3cc(OC)c(OC)c(OC)c3)O2)cc1S(=O)(=O)CC(C)O (relative stereo) [trans-2-[3-(2-Hydroxy-n-propylsulfonyl)-4-n-propoxy-5-{3-(1-imidazolyl)propoxy}phenyl]-5-(3,4,5-trimethoxyphenyl)tetrahydrofuran]
4 | 61 | CCCOc1c(OCCCSc2nc[nH]n2)cc([C@@H]2CC[C@@H](c3cc(OC)c(OC)c(OC)c3)O2)cc1S(=O)(=O)CC(C)O (relative stereo) [trans-2-[3-(2-Hydroxy-n-propylsulfonyl)-4-n-propoxy-5-{3-(1H-1,2,4-triazolyl-3-thio)propoxy}phenyl]-5-(3,4,5-trimethoxyphenyl)tetrahydrofuran]
5 | 46 | CCCOc1c(OCCCSc2ncc[nH]2)cc([C@H]2CC[C@H](c3cc(OC)c(OC)c(OC)c3)O2)cc1S(=O)(=O)CC(C)O (relative stereo) [trans-2-[3-(2-Hydroxy-n-propylsulfonyl)-4-n-propoxy-5-{3-(2-imidazolylthio)n-propoxy}phenyl]-5-(3,4,5-trimethoxyphenyl)tetrahydrofuran]
6 | 48 | CCCOc1c(OCCn2ccnc2)cc([C@@H]2CC[C@@H](c3cc(OC)c(OC)c(OC)c3)O2)cc1S(=O)(=O)CC(C)O (relative stereo) [trans-2-[3-(2-Hydroxy-n-propylsulfonyl-4-n-propoxy-5-{2-(1-imidazolyl)ethoxy}phenyl]-5-(3,4,5-trimethoxyphenyl)tetrahydrofuran]
7 | 20 | CCCOc1c(OCCN2CCOCC2)cc([C@@H]2CC[C@@H](c3cc(OC)c(OC)c(OC)c3)O2)cc1S(=O)(=O)CC(C)O (relative stereo) [trans-2-[3-(2-Hydroxypropylsulfonyl)-4-n-propoxy-5-{2-(1-morpholino)-n-ethoxy}phenyl]-5-(3,4,5-trimethoxyphenyl)tetrahydrofuran]
8 | 17 | CCCOc1cc([C@@H]2CC[C@@H](c3cc(OC)c(OC)c(OC)c3)O2)cc(S(=O)(=O)CCN2CCOCC2)c1OCCC (relative stereo) [trans-2-[3-(2-N-Morpholinoethylsulfonyl)-4,5-di-n-propoxyphenyl]-5-(3,4,5-trimethoxyphenyl)tetrahydrofuran]
9 | 18 | CCCOc1cc([C@@H]2CC[C@@H](c3cc(OC)c(OC)c(OC)c3)O2)cc(S(=O)(=O)CCN2CCCC2)c1OCCC (relative stereo) [trans-2-[3-(2-N-Pyrrolidinylethylsulfonyl)-4,5-dipropoxyphenyl]-5-(3,4,5-trimethoxyphenyl) tetrahydrofuran]
10 | 25 | CCCOc1c(OCCN2CCOCC2)cc([C@@H]2CC[C@@H](c3cc(OC)c(OC)c(OC)c3)O2)cc1S(=O)(=O)CC(C)=O (relative stereo) [trans-2-[3-(2-Oxopropylsulfonyl)-4-n-propoxy-5-{2-(1-morpholino)-ethoxy}phenyl]-5-(3,4,5-trimethoxyphenyl)tetrahydrofuran]
11 | 34 | CCCOc1c(OCCN2CCCCC2)cc([C@H]2CC[C@H](c3cc(OC)c(OC)c(OC)c3)O2)cc1S(=O)(=O)CC(C)=O (relative stereo) [trans-2-[3-(2-Oxopropylsulfonyl)-4-n-propoxy-5-{2-(1-piperidinyl)-ethoxy}phenyl]-5-(3,4,5-trimethoxyphenyl)tetrahydrofuran]
12 | 29 | CCCOc1c(OCCN2CCCC2)cc([C@@H]2CC[C@@H](c3cc(OC)c(OC)c(OC)c3)O2)cc1S(=O)(=O)CC(C)=O (relative stereo) [trans-2-[3-(2-Oxopropylsulfonyl)-4-n-propoxy-5-{2-(1-pyrrolidino)-ethoxy}phenyl]-5-(3,4,5-trimethoxyphenyl)tetrahydrofuran]
13 | 55 | CCCOc1c(OCCSc2ncc[nH]2)cc([C@H]2CC[C@H](c3cc(OC)c(OC)c(OC)c3)O2)cc1S(=O)(=O)CC(C)=O (relative stereo) [trans-2-[3-(2-Oxopropylsulfonyl)-4-n-propoxy-5-{2-(2-imidazolylthio)ethoxy}phenyl]-5-(3,4,5-trimethoxyphenyl)tetrahydrofuran]
14 | 48 | CCCOc1c(OCCCN2CCCC2)cc([C@@H]2CC[C@@H](c3cc(OC)c(OC)c(OC)c3)O2)cc1S(=O)(=O)CC(C)=O (relative stereo) [trans-2-[3-(2-Oxopropylsulfonyl)-4-n-propoxy-5-{3-(1-pyrrolidino)-n-propoxy}phenyl]-5-(3,4,5-trimethoxyphenyl)tetrahydrofuran]
15 | 69 | CCCOc1c(OCCCSc2nc[nH]n2)cc([C@@H]2CC[C@@H](c3cc(OC)c(OC)c(OC)c3)O2)cc1S(=O)(=O)CC(C)=O (relative stereo) [trans-2-[3-(2-Oxopropylsulfonyl)-4-n-propoxy-5-{3-(1H-1,2,4-triazolyl-3-thio)n-propoxy}phenyl]-5-(3,4,5-trimethoxyphenyl)tetrahydrofuran]
16 | 45 | CCCOc1c(OCCCSc2ncc[nH]2)cc([C@H]2CC[C@H](c3cc(OC)c(OC)c(OC)c3)O2)cc1S(=O)(=O)CC(C)=O (relative stereo) [trans-2-[3-(2-Oxopropylsulfonyl)-4-n-propoxy-5-{3-(2-imidazolylthio)propoxy}phenyl]-5-(3,4,5-trimethoxyphenyl)tetrahydrofuran]
17 | 18 | CCCOc1c(OCCCN2CCOCC2)cc([C@@H]2CC[C@@H](c3cc(OC)c(OC)c(OC)c3)O2)cc1S(=O)(=O)CC(C)O (relative stereo) [trans-2-[3-(2-hydroxypropyl-sulfonyl)-4-propoxy-5-{3-(1-morpholino)-n-propoxy}phenyl]-5-(3,4,5-trimethoxyphenyl)tetrahydrofuran]
18 | 31 | CCCOc1c(OCCCN2CCOCC2)cc([C@@H]2CC[C@@H](c3cc(OC)c(OC)c(OC)c3)O2)cc1S(=O)(=O)CC(C)=O (relative stereo) [trans-2-[3-(2-oxopropylsulfonyl)-4-n-propoxy-5-{3-(1-morpholino)-n-propoxy}phenyl]-5-(3,4,5-trimethoxyphenyl)tetrahydrofuran]
19 | 25 | CCCOc1c(OCCCN2CCOCC2)cc([C@@H]2CC[C@@H](c3cc(OC)c(OC)c(OC)c3)O2)cc1S(=O)(=O)CCC(C)O (relative stereo) [trans-2-[3-(3-Hydroxybutyl)sulfonyl-4-n-propoxy-5-(3-{1-morpholino}-n-propoxy)phenyl]-5-(3,4,5-trimethoxyphenyl)tetrahydrofuran]
20 | 55 | CCCS(=O)(=O)c1cc([C@@H]2CC[C@@H](c3cc(OC)c(OC)c(OC)c3)O2)cc(OCCN2CCOCC2)c1OCCCCCCO (relative stereo) [trans-2-[3-n-Propylsulfonyl-4-(6-hydroxy-n-hexyloxy)-5-{2-(1-morpholino)-ethoxy}phenyl]5-(3,4,5-trimethoxyphenyl)tetrahydrofuran]

Row | Compound | inhibition at 0.003 µM [%]
21 | CCCOc1c(OCCCCn2ccnc2)cc([C@H]2CC[C@H](c3cc(OC)c(OC)c(OC)c3)O2)cc1S(=O)(=O)CC(C)O (relative stereo) [trans-2-[3-(2-Hydroxy-n-propylsulfonyl)-4-n-propoxy-5-{4-(1-imidazolyl)butoxy}phenyl]-5-(3,4,5-trimethoxyphenyl)tetrahydrofuran] | 43
22 | CCCOc1c(OCCCCN2CCOCC2)cc([C@@H]2CC[C@@H](c3cc(OC)c(OC)c(OC)c3)O2)cc1S(=O)(=O)CC(C)=O (relative stereo) [trans-2-[3-(2-Oxopropylsulfonyl)-4-n-propoxy-5-{4-(1-morpholino)-n-butoxy}phenyl]-5-(3,4,5-trimethoxyphenyl)tetrahydrofuran] | 30
23 | CCCOc1c(OCCCCSc2ncc[nH]2)cc([C@H]2CC[C@H](c3cc(OC)c(OC)c(OC)c3)O2)cc1S(=O)(=O)CC(C)=O (relative stereo) [trans-2-[3-(2-Oxopropylsulfonyl)-4-n-propoxy-5-{4-(2-imidazolylthio)butoxy}phenyl]-5-(3,4,5-trimethoxyphenyl)tetrahydrofuran] | 60

same assay, conditions: drug concentration of 3 nM, trans configuration, 0.003 µM

Row | % Inhibition of the binding of [3H]N-methylcarbamoyl-PAF to human platelet membranes | Compound
24 | 60% and 100% | CCCS(=O)(=O)c1cc([C@H]2CC[C@H](c3cc(OC)c(OC)c(OC)c3)O2)cc(OC)c1OCCSc1ccc(O)cc1 (relative stereo) [trans-2-[3-Propylsulfonyl-4-{2-(4-hydroxyphenylthio)-ethoxy}-5-methoxyphenyl]-5-(3,4,5-trimethoxyphenyl) tetrahydrofuran]

Source: patent US5114961A, “2,5-diaryl tetrahydrofurans and analogs thereof as PAF antagonists” (Merck & Co., Inc., priority 1990, dated 1992)
